According to patent publication EP3727588B1, “ACTIVATOR PEPTIDES OF THE ENZYME ADAM 10 AND RELATED USES IN THE TREATMENT OF ALZHEIMER'S DISEASE” (UNIVERSITA' DEGLI STUDI DI MILANO, priority 2017, dated 2019):
Where “and” joins values, the source holds several entries; their conditions need not be identical. Equal entries are not always repeated. Peptide text beside a SMILES is read from it.

Experiments:
[1] = leukogram (white blood cell count) after 14 days' treatment; format: in vivo, mice
Experimental: (§1) C57/BL6 adult mice were treated for 14 days with daily intraperitoneal injection of saline solution or peptides at a dose of 3 nmol/g (6-10 animals per experimental group). The animals were maintained in an enclosure at 25 ± 2 °C with an alternating light/dark cycle of 12 hours and had free access to water and food in the form of pellets (standard diet).
(§2) The blood, collected through cardiac puncture, was analysed with a laser counter (ADVIA 120, Siemens) using specific software for the murine species. From each sample a blood smear was prepared, stained with the May Grünwald-Giemsa method, and used for the morphological analysis of the leukocytes, the red blood cells and the platelet estimate. After the automatic counting of the cells and the preparation of the smear, all the samples were centrifuged and the plasma was transferred into separate test tubes. The analysis of the plasma samples was performed through automatic spectrophotometer (ILAB-300, Instrumentation Laboratory). All the results were compared with the values provided by the company Charles River for mice of the same strain and age.
Except for the basophils and eosinophils, the total count and white blood cell (WBC) differential is lower with respect to the range values in all the animals treated. However, we noticed that the reference range values provided by the company Charles River are particularly high with respect to other values provided for other control groups and in other scientific articles in which the same animal strain is analysed. Justification for these differences found is provided by the pre-analytical factors used by Charles River in determining the different reference ranges (such as the method used, the type of sampling used, etc.). Despite this, the analyses of the data performed both individually and by examining the mean and median values in the different groups, show some differences in the values referring to mice treated with the active peptide with respect to the control mice (Table 2).
The following Table 2 illustrates the results of the white blood cell count. The reference values are provided by Charles River for C57BL mice of 56-70 days.

[2] = body weight and food intake during 14 days' treatment; format: in vivo; details: C57BL/6 mice, daily intraperitoneal 3 nmol/g
Experimental: as §1
For the entire duration of the treatment, on a daily basis, the weight and food intake of each animal were monitored and recorded, in order to evaluate any changes caused by the treatment. 24 hours after the last injection the mice were anaesthetized, and then the blood was taken through cardiac puncture, whereas the brain and liver of the animal were rapidly dissected to perform biochemical or immunohistological analyses.
The body weight and food intake were monitored and recorded on a daily basis.

[3] = test system: GFAP and Iba-1 positive cells; experiment: neuro-inflammation: GFAP and Iba-1 positive cells in hippocampus; format: in vivo, mice; details: 5 fields, 14 days' treatment
Experimental: as §1
After the sacrifice of the treated animal, a portion of liver and a brain hemisphere were fixed in 10% formalin for 48 hours, and included in paraffin. From each block of paraffin, serial sections 5/6µm thick were obtained. The sections were then stained with haematoxylin-eosin or processed through immunohistochemistry.
Subsequently, to evaluate the presence of neuro-inflammation, 5 different fields of the hippocampus were considered to verify any presence of GFAP and Iba-1 positive cells.

[4] = Novel Object Recognition Test (NORT), C57BL/6 mice; format: in vivo; details: 14 days' treatment
Experimental: as §1
After 14 days of treatment the animals were subjected to the Novel Object Recognition Test (NORT). Such test is structured in three phases: habituation, familiarization and testing. In the first phase, the animal is placed in an empty arena and left free to explore the environment for 5 minutes. The day after, during the familiarization phase, the animal is placed in the same arena in the presence of two objects, identical in shape and size, for 10 minutes. Then the time spent by the animal exploring the individual object is recorded. On the third day, the animal is placed in the area in the presence of an identical object to that used in the familiarization phase and a new one. In this phase the difference in time spent by the animal exploring the familiar object and the new object is evaluated. […] In both phases of the test, the objects are positioned symmetrically and opposite inside the arena, and all the sessions are recorded with the aid of a video camera. […]

[5] = test system: dendritic spines of the hippocampal neurons; experiment: dendritic spine morphology and density in hippocampus, C57BL/6 mice; format: in vivo; details: 14 days' treatment
Experimental: as §1
For the dendritic spine analysis, the protocol used is the one previously described by Kim et al, and envisages the use of DilDye lipophilic tracer (Invitrogen) to allow the dendritic spines to be viewed under the confocal microscope. The analysis of the dimensions and morphology of the spines was performed with ImageJ software.
The spines were classified, based on their morphology, into three different categories: thin, stubby (without a well-defined "neck") and mushroom shaped. To evaluate the possible effect induced by PEP3 on the spine morphology, two animals for each experimental group were perfused after 14 days of treatment and the brain was post-fixed in PFA and cut with a vibratome. To view the dendritic spines the lipophilic tracer DilDye was used. From the images acquired from the confocal microscope the number, length and width of the head of the dendritic spines of the hippocampal neurons were measured.

[6] = blood count and platelet count after 14 days' treatment; format: in vivo, mice; set-up: key to Aggregate s: +, ++, +++ considering the presence of platelet aggregates detected in the blood smear that make the analysis difficult; +, ++, +++ considering the presence of platelet aggregates detected in the blood smear that make the analysis difficult; +, ++, +++ considering the presence of platelet aggregates detected in the blood smear that make the analysis difficult; key to Estimate Plt: A= appropriate platelet estimate
Experimental: as §1, §2
The range values are provided by Charles River for C57BL mice aged between 56-70 days, whose blood was collected by cardiac puncture after euthanasia.

[7] = individual animal, 14 days, daily intraperitoneal 3 nmol/g

`N=C(N)NCCC[C@H](NC(=O)CNC(=O)[C@@H](N)Cc1ccc(O)cc1)C(=O)N[C@@H](CCCCN)C(=O)N[C@@H](CCCCN)C(=O)N[C@@H](CCCNC(=N)N)C(=O)N[C@@H](CCCNC(=N)N)C(=O)N[C@@H](CCC(N)=O)C(=O)N[C@@H](CCCNC(=N)N)C(=O)N[C@@H](CCCNC(=N)N)C(=O)N[C@@H](CCCNC(=N)N)C(=O)NCC(=O)NCC(=O)N[C@@H](CO)C(=O)NCC(=O)N[C@@H](CCC(N)=O)C(=O)N1CCC[C@H]1C(=O)N1CCC[C@H]1C(=O)N[C@@H](CCC(=O)O)C(=O)N[C@@H](CCC(N)=O)C(=O)N[C@@H](CCC(=O)O)C(=O)N1CCC[C@H]1C(=O)N[C@@H](CCCNC(=N)N)C(=O)NCC(=O)O` [inPEP3, reference compound] (H-YGRKKRRQRRRGGSGQPPEQEPRG-OH) showed a Basophils ([1]; group mean) of 0 µL⁻¹, an Eosinophils ([1]; group mean) of 39.9 µL⁻¹ and a Lymphocytes ([1]; group mean) of 1935.9 µL⁻¹. It also gave a Monocytes ([1]; group mean) of 137.1 µL⁻¹, a Neutrophils ([1]; group mean) of 990.5 µL⁻¹ and a White blood cells ([1]; group mean) of 3103.3 µL⁻¹. For the same compound, the Basophils ([1]; group median) was 0 µL⁻¹, the Eosinophils ([1]; group median) was “(-0.0378). x10^3/µL” and the Lymphocytes ([1]; group median) was “(-1.837). x10^3/µL”. For the same compound, the Monocytes ([1]; group median) was “(-0.0918). x10^3/µL”, the Neutrophils ([1]; group median) was “(-0.2468). x10^3/µL” and the White blood cells ([1]; group median) was “(-2.295). x10^3/µL”. The Basophils [1, 7] was 0 µL⁻¹, the Eosinophils [1, 7] was 26.1 µL⁻¹ and 31 µL⁻¹ and 44.8 µL⁻¹ and 62 µL⁻¹ and 36 µL⁻¹ and 39.6 µL⁻¹ and the Lymphocytes [1, 7] was 2218.5 µL⁻¹ and 1271 µL⁻¹ and 1971.2 µL⁻¹ and 2976 µL⁻¹ and 1476 µL⁻¹ and 1702.8 µL⁻¹. For the same compound, the Monocytes [1, 7] was 104.4 µL⁻¹ and 15.5 µL⁻¹ and 179.2 µL⁻¹ and 372 µL⁻¹ and 72 µL⁻¹ and 79.2 µL⁻¹, the Neutrophils [1, 7] was 261 µL⁻¹ and 232.5 µL⁻¹ and 2284.8 µL⁻¹ and 2790 µL⁻¹ and 216 µL⁻¹ and 158.4 µL⁻¹ and the White blood cells [1, 7] was 2610 µL⁻¹ and 1550 µL⁻¹ and 4480 µL⁻¹ and 6200 µL⁻¹ and 1800 µL⁻¹ and 1980 µL⁻¹. The “food intake (ratio daily food intake / mean body weight)” value [2] was 99.03±2.03%, the “number of GFAP positive cells” value [3] was 31.67±1.12 and the “number of Iba-1 positive cells” value [3] was 8.50±0.43. For the same compound, the “time exploring the new object” value [4] was 59.24 ± 4.58%, the “density of the dendritic spines” value [5] was 10.15±1.05 n. of spines/10µm and the “length of mushroom shaped spines” value [5] was 0.85±0.04. The “length of the spines” value [5] was 0.83±0.02 µm, the “percentage of mushroom shaped spines” value [5] was 30.81 ± 1.78% and the “percentage of stubby spines” value [5] was 42.78 ± 1.86%. The “percentage of thin spines” value [5] was 26.41 ± 1.42%, the “width of the head of spines” value [5] was 0.79±0.02 µm and the “(Ht)” value ([6]; group mean) was 48.6%. For the same compound, the Hb ([6]; group mean) was 12.3 g/dL, the “Mean Corpuscula r Hb (MCH)” value ([6]; group mean) was 13.4 pg and the “Mean Corpuscula r Hb Conc. MCHC” value ([6]; group mean) was 25.3%. The Platelet count ([6]; group mean) was 661000 µL⁻¹, the Red blood cells ([6]; group mean) was 9.16e+06 µL⁻¹ and the “Red cell distribution width (RDW)” value ([6]; group mean) was 20.7%. The “Vol. Mean Corp. Vol. (MCV)” value ([6]; group mean) was 53.1 fL, the “(Ht)” value ([6]; group median) was -48.4% and the Hb ([6]; group median) was -12.3 g/dL. The Platelet count ([6]; group median) was -659000 µL⁻¹, the Red blood cells ([6]; group median) was -9.13e+06 µL⁻¹ and the “Red cell distribution width (RDW)” value ([6]; group median) was -20.5%. The “Vol. Mean Corp. Vol. (MCV)” value ([6]; group median) was -53.1 fL, the “Estimate Plt” value ([6]; individual animal, blood smear, first part of cell) was “A” and the Aggregate s ([6]; individual animal, blood smear, second part of cell) was “+++”. For the same compound, the “(Ht)” value [6, 7] was 50.1% and 49.5% and 47.8% and 48.7% and 48% and 47.3%, the Hb [6, 7] was 12.6 g/dL (2×) and 12 g/dL (2×) and 12.4 g/dL and 12.1 g/dL and the “Mean Corpuscula r Hb (MCH)” value [6, 7] was 13.5 Pg (3×) and 13.3 Pg and 13.4 Pg (2×). The “Mean Corpuscula r Hb Conc. MCHC” value [6, 7] was 25.1% (2×) and 25.5% (2×) and 25.2% and 25.4%, the Platelet count [6, 7] was 522000 µL⁻¹ and 661000 µL⁻¹ and 656000 µL⁻¹ and 341000 µL⁻¹ and 998000 µL⁻¹ and 790000 µL⁻¹ and the Red blood cells [6, 7] was 9.36e+06 µL⁻¹ and 9.34e+06 µL⁻¹ and 9.01e+06 µL⁻¹ and 9.21e+06 µL⁻¹ and 9.04e+06 µL⁻¹ and 8.97e+06 µL⁻¹. The “Red cell distribution width (RDW)” value [6, 7] was 20.4% and 20.6% and 21.4% and 21.8% and 19.6% and 20.1% and the “Vol. Mean Corp. Vol. (MCV)” value [6, 7] was 53.5 fL and 53 fL and 53.1 fL (2×) and 52.9 fL and 52.7 fL.
